According to ChEMBL document CHEMBL1132011, “The synthesis of ketomethylene pseudopeptide analogues of dipeptide aldehyde inhibitors of calpain” (Bioorg Med Chem Lett, 1999):
pKi: −log10 of the molar value. Non-standard residues stand in square brackets, D forms with d. Residues, ends and D or L forms follow the SMILES beside them. ξ: configuration not given here. *: point of attachment. ξF = NC(Cc1ccccc1)C(=O)O; Cbz = O=C(OCc1ccccc1)*

Molecular target: T1, Calpain-1 catalytic subunit (Gallus gallus, UniProt P00789)
T1 sequence (P00789 whole entry): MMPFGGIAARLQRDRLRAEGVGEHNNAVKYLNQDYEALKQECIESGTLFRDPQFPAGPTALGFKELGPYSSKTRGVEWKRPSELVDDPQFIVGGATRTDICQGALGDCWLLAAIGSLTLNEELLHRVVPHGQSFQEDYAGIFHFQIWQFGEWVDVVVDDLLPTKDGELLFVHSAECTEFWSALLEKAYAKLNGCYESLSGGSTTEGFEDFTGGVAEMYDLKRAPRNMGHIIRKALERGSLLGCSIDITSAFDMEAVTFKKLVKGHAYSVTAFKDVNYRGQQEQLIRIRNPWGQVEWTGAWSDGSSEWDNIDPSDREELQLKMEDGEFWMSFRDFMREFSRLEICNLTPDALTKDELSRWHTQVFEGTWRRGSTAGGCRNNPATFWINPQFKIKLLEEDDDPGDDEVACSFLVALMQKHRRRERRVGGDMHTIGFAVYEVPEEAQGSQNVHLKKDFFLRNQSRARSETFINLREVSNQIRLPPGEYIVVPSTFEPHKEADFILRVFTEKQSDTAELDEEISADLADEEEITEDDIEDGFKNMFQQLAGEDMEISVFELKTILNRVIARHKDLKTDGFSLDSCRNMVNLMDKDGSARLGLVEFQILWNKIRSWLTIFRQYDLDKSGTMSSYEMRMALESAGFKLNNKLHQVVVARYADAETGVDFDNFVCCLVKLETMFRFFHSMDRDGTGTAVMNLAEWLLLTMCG
Assay: Inhibitory activity against chicken gizzard smooth muscle calpain

pKi | SMILES
4.35 | CC(C=O)CC(=O)[C@@H](NC(=O)OCc1ccccc1)C(C)C (stereo partly drawn)
5.60 | CC(C)[C@H](NC(=O)OCc1ccccc1)C(=O)C[C@H](C=O)Cc1ccccc1
8.00 | CC(C)[C@H](NC(=O)OCc1ccccc1)C(=O)NC(C=O)Cc1ccccc1 (stereo partly drawn) (Cbz-Val-[ξF]-aldehyde)
